# From patent US6723735B1, “Imidazo-pyridine derivatives as ligands for GABA receptors” (Merck Sharp & Dohme Ltd., priority 1999, dated 2004)
# Structures can show the parent of a compound that is named as a salt.
row,SMILES,melting point
1,"c1cc(-n2ccnc2)cc(-n2cnc3cc(-c4ccoc4)cnc32)c1 (as salt: oxalate) [Example 3, 6-(Furan-3-yl)-3-[3-(imidazol-1-yl)phenyl]-3H-imidazo[4,5-b]pyridine]",202 to 204 °C
2,"c1cncc(-c2cccc(-n3cnc4cc(-c5ccoc5)cnc43)c2)c1 [Example 1, 6-(Furan-3-yl)-3-[3-(pyridin-3-yl)phenyl]-3H-imidazo[4,5-b]pyridine]",191 to 192 °C
3,"c1ccc(-c2cnc3c(c2)ncn3-c2cccc(-c3cccnc3)c2)cc1 [Example 5, 6-Phenyl-3-[3-(pyridin-3-yl)phenyl]-3H-imidazo[4,5-b]pyridine]",179 to 180 °C
